{"source": "patent US9487530B2", "about": "“Transient protection of normal cells during chemotherapy” (G1 Therapeutics, Inc., priority 2013, dated 2016)", "key": {"[1]": {"tested_on": "telomerized human diploid fibroblasts (tHDFs; tHS68)", "assay": "Protection from chemotherapy-induced cell death, DNA damage and caspase activation in fibroblasts", "format": "cell-based", "description": "Cell survival was determined by Cell TiterGlo assay per manufacturer's recommendations. For both γ-H2AX and caspase 3/7 assays, cells were plated and allowed to become adherent for 24 hours. […] For γ-H2AX, cells were harvested for analysis 8 hours after chemotherapy exposure. For the γ-H2AX assay, cells were fixed, permeabilized, and stained with anti-γ-H2AX as per the γ-H2AX Flow Kit (Millipore) and quantitated by flow cytometry. Data was analyzed using FlowJo 2.2 software developed by TreeStar, Inc. For the in vitro caspase 3/7 assay, cells were harvested 24 hours post chemotherapy treatment. Caspase 3/7 activation was measured using the Caspase-Glo® 3/7 Assay System (Promega) per manufacturer's recommendations."}, "blood cell counts": {"tested_on": "blood cell counts", "assay": "5FU-induced myelosuppression, single dose", "format": "in vivo, mouse", "details": "150 mg/kg oral, 30 minutes before 5FU 150 mg/kg i.p.", "description": "Complete blood cell counts were measured every two days starting on day six."}, "[2]": {"tested_on": "human renal proximal tubule cells", "assay": "Cell cycle of renal proximal tubule cells with etoposide or cisplatin", "format": "cell-based", "details": "10-1000 nM in combination with etoposide or cisplatin", "description": "The ability of Cdk4/6 inhibitors to protect human renal proximal tubule cells from chemotherapy induced DNA damage was analyzed using etoposide and cisplatin. […] At the conclusion of the experiment, cells were harvested, fixed, and stained with propidium iodide (a DNA intercalator), which fluoresces strongly red (emission maximum 637 nm) when excited by 488 nm light. Samples were run on Dako Cyan flow cytometer."}, "[3]": {"tested_on": "456 (395 non-mutant) kinases", "assay": "DiscoveRx KINOMEscan profiling", "format": "binding", "details": "1000 nM", "description": "The compound was screened using a single concentration of 1000 nM (>1000 times the 1050 on Cdk4). Results from this screen confirmed the high potency against Cdk4 and high selectivity versus Cdk2."}, "[4]": {"assay": "Metabolic stability in liver microsomes", "format": "in vitro ADME", "details": "each of the species tested (human, monkey, dog, rat, mouse); 1 uM", "description": "Human, mouse, and dog liver microsomes were purchased from Xenotech, and Sprague-Dawley rat liver microsomes were prepared by Absorption Systems. The reaction mixture comprising 0.5 mg/mL of liver microsomes, 100 mM of potassium phosphate, pH 7.4, 5 mM of magnesium chloride, and 1 uM of test compound was prepared. The test compound was added into the reaction mixture at a final concentration of 1 uM. An aliquot of the reaction mixture (without cofactor) was incubated in shaking water bath at 37 deg. C. for 3 minutes. The control compound, testosterone, was run simultaneously with the test compound in a separate reaction. The reaction was initiated by the addition of cofactor (NADPH), and the mixture was then incubated in a shaking water bath at 37 deg. C. Aliquots (100 μL) were withdrawn at 0, 10, 20, 30, and 60 minutes for the test compound and 0, 10, 30, and 60 minutes for testosterone. […] Test compound samples were analyzed using the Orbitrap high resolution mass spectrometer to quantify the disappearance of parent test compound and detect the appearance of metabolites. […] Half-lives were calculated using GraphPad software, fitting to a single-phase exponential decay equation.\nWhen calculated half-life was longer than the duration of the experiment, the half-life was expressed as >the longest incubation time. The calculated half-life is also listed in parentheses. […]"}, "[5]": {"tested_on": "WM2664 cells (CDK4/6-dependent cell line)", "assay": "Cell cycle arrest (propidium iodide), WM2664", "format": "cell-based", "details": "300 nM for 24 hours", "source_text": "To test the ability of Cdk4/6 inhibitors to induce a clean G1-arrest, a cell based screening method was used consisting of two Cdk4/6-dependent cell lines (tHS68 and WM2664; Rb-positive) and one Cdk4/6-independent (A2058; Rb-negative) cell line. […] At the conclusion of the experiment, cells were harvested, fixed, and stained with propidium iodide (a DNA intercalator), which fluoresces strongly red (emission maximum 637 nm) when excited by 488 nm light. Samples were run on Dako Cyan flow cytometer and >10,000 events were collected for each sample. Data were analyzed using FlowJo 2.2 software developed by TreeStar, Inc."}, "[6]": {"tested_on": "human renal proximal tubule cells", "assay": "gamma-H2AX and caspase 3/7 in renal proximal tubule cells with cisplatin", "format": "cell-based", "description": "Normal renal proximal tubule epithelial cells were obtained from American Type Culture Collection (ATCC, Manassas, Va.). Cells were grown in an incubator at 37° C. in a humidified atmosphere of 5% CO2 in Renal Epithelial Cell Basal Media (ATCC) supplemented with Renal Epithelial Cell Growth Kit (ATCC) in 37° C. humidified incubator. […] For the γ-H2AX assay, cells were fixed, permeabilized, and stained with anti-γ-H2AX as per the γ-H2AX Flow Kit (Millipore) and quantitated by flow cytometry. Data was analyzed using FlowJo 2.2 software developed by TreeStar, Inc. Caspase 3/7 activation was measured using the Caspase-Glo 3/7 Assay System (Promega, Madison, Wis.) by following the manufacturer's instructions."}, "[7]": {"tested_on": "RB-negative SCLC cell lines (H69, H82, H209, H345, NCI417, SHP-77)", "assay": "EdU proliferation, RB-negative SCLC cell lines", "format": "cell-based, human", "details": "24 hours treatment", "description": "The effect of Cdk4/6 inhibition on proliferation was measured by EdU incorporation. An RB-intact, Cdk4/6-dependent cell line (WM2664 or tHS68) and a panel of RB-negative SCLC cell lines (H69, H82, H209, H345, NCI417, or SHP-77) were analyzed for growth inhibition by the various CDK4/6 inhibitors."}}}
{"smiles": "CN1CCN(c2ccc(Nc3ncc4cc5n(c4n3)C3(CCCCC3)CNC5=O)nc2)CC1", "note": "[T, 2′-((5-(4-methylpiperazin-1-yl)pyridin-2-yl)amino)-7′,8′-dihydro-6′H-spiro[cyclohexane-1,9′-pyrazino[1′,2′:1,5]pyrrolo[2,3-d]pyrimidin]-6′-one]", "values": [{"measurement": "cell survival (Cell TiterGlo)", "setting": "[1]; in the presence of etoposide (5 uM) or carboplatin (100 uM)", "value": "dose dependent cell survival"}, {"measurement": "DNA damage as measured by gamma-H2AX formation", "setting": "[1]; prior to carboplatin, doxorubicin, etoposide, camptothecin or paclitaxel", "value": "attenuated DNA damage"}, {"measurement": "caspase 3/7 activation", "setting": "[1]; prior to carboplatin, doxorubicin, etoposide, camptothecin, and paclitaxel", "value": "robust decrease in caspase 3/7 activation in a dose-dependent manner"}, {"measurement": "recovery of blood cell lineages after 5FU", "setting": "blood cell counts", "value": "more rapid recovery"}, {"measurement": "cell cycle distribution", "setting": "[2]", "value": "decrease in the percentage of S-phase cells, with a corresponding rise in the percentage of cells in the G0-G1 phase"}, {"measurement": "number of 395 non-mutant kinases inhibited", "setting": "[3]; inhibitory threshold 65%", "value": "92 (23.3%)"}, {"measurement": "number of 395 non-mutant kinases inhibited", "setting": "[3]; inhibitory threshold 90%", "value": "31 (7.8%)"}, {"measurement": "number of 395 non-mutant kinases inhibited", "setting": "[3]; inhibitory threshold 99%", "value": "6 (1.5%)"}, {"measurement": "half-life in liver microsomes", "setting": "[4]", "value": "shorter half-life than PD0332991"}, {"measurement": "S-phase peak", "setting": "[5]", "value": "causes a loss of the S-phase peak"}, {"measurement": "caspase 3/7 activation", "setting": "[6]; cisplatin 25 uM, 50 uM, or 100 uM", "value": "dose-dependent reduction in caspase 3/7 activation"}, {"measurement": "DNA damage as measured by gamma-H2AX formation", "setting": "[6]; in combination with 25 uM cisplatin", "value": "attenuated DNA damage"}, {"measurement": "growth (cells in S-phase by EdU)", "setting": "[7]", "value": "does not affect the growth"}]}
